Patent US8871751B2, “Compositions and methods relating to nuclear hormone and steroid hormone receptors including inhibitors of estrogen receptor alpha-mediated gene expression and inhibition of breast cancer” (The Board of Trustees of the University of Illinois, priority 2008, dated 2014)
“And” between values parts separate entries of the source, which are not always exact repeats. Equal entries are not always repeated. Where two headings read alike, the source gives them in different places.

Key:
[1] = molecular target: T1, AR (Homo sapiens, UniProt P10275); experiment: AR-mediated gene expression, PSA-luciferase reporter in stable HeLa-AR cells; type: cell-based; settings: for IC50: 24 h
T1 construct: expressed in transfected cells; host or cells: HeLa (HeLa-AR / HeLaAR)
T1 sequence (P10275 1-920): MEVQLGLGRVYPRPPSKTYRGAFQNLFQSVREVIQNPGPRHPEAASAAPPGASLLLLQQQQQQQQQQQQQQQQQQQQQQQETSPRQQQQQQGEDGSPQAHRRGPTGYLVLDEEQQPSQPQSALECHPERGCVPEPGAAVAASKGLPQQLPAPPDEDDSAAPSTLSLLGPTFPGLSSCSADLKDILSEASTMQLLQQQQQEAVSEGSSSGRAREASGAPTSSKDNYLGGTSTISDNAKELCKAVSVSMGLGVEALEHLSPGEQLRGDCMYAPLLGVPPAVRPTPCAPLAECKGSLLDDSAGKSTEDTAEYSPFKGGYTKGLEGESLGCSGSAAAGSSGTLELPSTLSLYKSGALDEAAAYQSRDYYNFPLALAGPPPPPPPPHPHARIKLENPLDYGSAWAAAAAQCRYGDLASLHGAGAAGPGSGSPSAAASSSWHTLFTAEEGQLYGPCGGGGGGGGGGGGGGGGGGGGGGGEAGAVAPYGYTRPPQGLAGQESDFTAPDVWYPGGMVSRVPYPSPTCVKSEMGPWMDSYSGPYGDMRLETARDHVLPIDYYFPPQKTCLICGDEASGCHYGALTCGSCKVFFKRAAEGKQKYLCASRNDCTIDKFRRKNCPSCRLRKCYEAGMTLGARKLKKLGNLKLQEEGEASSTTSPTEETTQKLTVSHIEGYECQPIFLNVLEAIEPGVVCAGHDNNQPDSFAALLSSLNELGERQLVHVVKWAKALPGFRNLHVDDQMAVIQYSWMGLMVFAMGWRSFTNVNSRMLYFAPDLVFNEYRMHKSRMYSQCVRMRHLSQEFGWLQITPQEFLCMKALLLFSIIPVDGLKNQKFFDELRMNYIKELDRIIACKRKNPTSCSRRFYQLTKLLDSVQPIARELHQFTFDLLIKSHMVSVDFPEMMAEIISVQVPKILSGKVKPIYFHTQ
Description: FIG. 9. Effect of some Theophylline-related compounds on AR-mediated gene expression in stable HeLa-AR cells. Assays were performed as described for ER in the legend to FIG. 4 and PR/GR in FIG. 5. The cells were incubated with 80 pM DHT and the indicated concentration of each small molecule. Luciferase activity was measured after 24 hours. The data represent the mean±SEM for 3 separate experiments at each concentration.
Reporter Gene Assays. TPSF was identified by reporter gene assays comparing the ability of ˜200 compounds structurally related to TPBM (see reference 19) to inhibit transcription of a stably transfected (ERE)3-luciferase reporter gene in T47D-KBluc breast cancer cells (20). AR was assayed in stably transfected HeLa cells and GR was assayed in stably transfected T47D cells maintained as described above. Four days before each experiment the cells were switched to medium containing CD-treated serum as described above. The HeLaAR cells were plated at 100,000 cells/well and the T47D/A1-2 and T47D-KBluc cells were plated at 200,000 cells/well in 1 ml of their respective media in 24-well plates. After 24 hours the indicated concentrations of E2, dihydrotestosterone (DHT) or dexamethasone (Dex) and DMSO vehicle, with or without TPSF, were added to each well. After 24 hours, the cells were washed once in phosphate buffered saline and lysed using 100 μl of 1× Passive Lysis Buffer (Promega, Madison Wis.). Luciferase activity was determined using BrightGlo firefly luciferase reagent from Promega (Madison, Wis.).

[2] = molecular target: T2, PR (Homo sapiens, UniProt P06401); experiment: PR transactivation, MMTV-luciferase reporter in T47D cells; type: cell-based
T2 construct: endogenous in cells; host or cells: T47D (stably transfected with GR and MMTV-luciferase)
T2 sequence (P06401 1-933): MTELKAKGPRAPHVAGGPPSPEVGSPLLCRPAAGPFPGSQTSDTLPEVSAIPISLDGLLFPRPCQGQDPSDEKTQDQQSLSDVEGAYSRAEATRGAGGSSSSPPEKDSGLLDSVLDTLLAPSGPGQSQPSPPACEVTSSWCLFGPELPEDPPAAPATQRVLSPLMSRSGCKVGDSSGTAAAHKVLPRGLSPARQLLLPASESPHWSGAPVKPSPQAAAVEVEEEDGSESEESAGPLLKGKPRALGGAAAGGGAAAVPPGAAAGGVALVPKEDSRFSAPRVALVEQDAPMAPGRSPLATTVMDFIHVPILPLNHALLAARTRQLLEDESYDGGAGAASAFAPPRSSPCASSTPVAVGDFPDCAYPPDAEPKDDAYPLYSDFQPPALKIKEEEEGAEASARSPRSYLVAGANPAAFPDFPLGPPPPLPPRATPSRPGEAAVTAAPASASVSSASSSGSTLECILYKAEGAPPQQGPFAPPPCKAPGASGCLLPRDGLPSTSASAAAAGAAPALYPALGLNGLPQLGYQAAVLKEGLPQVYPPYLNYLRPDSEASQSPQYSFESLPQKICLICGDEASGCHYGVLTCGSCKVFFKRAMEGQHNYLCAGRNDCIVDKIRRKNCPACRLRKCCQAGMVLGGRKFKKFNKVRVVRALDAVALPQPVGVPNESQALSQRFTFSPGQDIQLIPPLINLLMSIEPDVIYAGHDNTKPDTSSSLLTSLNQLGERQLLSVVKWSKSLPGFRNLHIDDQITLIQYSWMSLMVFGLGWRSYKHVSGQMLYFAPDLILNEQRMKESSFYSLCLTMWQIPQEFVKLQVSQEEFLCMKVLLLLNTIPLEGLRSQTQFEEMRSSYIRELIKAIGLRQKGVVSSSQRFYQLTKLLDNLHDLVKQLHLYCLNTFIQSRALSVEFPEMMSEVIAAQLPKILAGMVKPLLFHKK
Description: The T47D-KBluc cells stably express an (ERE)3-luciferase reporter gene (38). Cells were maintained in phenol red-free RPMI 1640 with 2 mM L-glutamine, 1.5 g/l sodium bicarbonate, 4.5 g/l glucose, 10 mM Hepes, pH 7.5, 1 mM sodium pyruvate, 10% FBS (Atlanta Biological, Atlanta, Ga.) and antibiotics. Four days before E2 induction, the cells were switched to the above medium, with 10% 2× charcoal-dextran-treated calf serum instead of FBS. 200,000 cells/well were transferred to each well of a 24-well plate. After 24 h the indicated concentrations of the test compounds were added in DMSO and E2 was added to 20 pM. After 24 h cells were washed once in PBS, and 150 μl 1× Passive Lysis Buffer (Promega, Madison Wis.) was used to lyse the cells. Luciferase activity was determined using firefly luciferase reagents from Promega (Madison, Wis.). T47D cells stably transfected to express GR and a mouse mammary tumor virus luciferase reporter that responds to liganded GR and PR were maintained and assayed in medium containing 5 nM progesterone for PR assays, or 2.5 nM dexamethsaone for GR assays, essentially as described (39).

[3] = HeLa-AR cells, 80 pM DHT, read-out: AR-IC50

Row | Structure (SMILES) | IC50 ([1]; stably transfected HeLa cells, 1 μM DHT, read-out: IC50 for inhibition of AR gene expression (PSA-Luc)) | PR at 30 μM [2] | AR at 10 μM [1] | IC50 [1, 3] [µM] | effect on PR transactivation ([2]; 5 nM progesterone, up to 30 μM)
1 | Cn1c(=S)c2[nH]c(SCCCC(=O)c3ccc(F)cc3)nc2n(C)c1=O [TPSF, Butyrophenone, p-fluoro-4-(1,2,3,6,-tetrahydro-1,3-dimethyl-2-oxo-6-thionopurin-8-ylthio)] | 33 µM and 34 µM |  |  |  | 
2 | Cn1c(=O)c2[nH]c(C3CC4CCC3C4)nc2n(C)c1=O (centres unmarked) [Compound 101807, 8-Bicyclo[2.2.1]hept-2-yl-1,3-dimethyl-3,7-dihydro-purine-2,6-dione] |  | 71 | 50 | 5 | 
3 | Cn1c(=O)c2[nH]c(SC3CCCCC3)nc2n(C)c1=S [Compound 95899, 8-Cyclohexylsulfanyl-1,3-dimethyl-2-thioxo-1,2,3,7-tetrahydro-purin-6-one] |  | 42 | 88 | 2.5 | 
4 | Cn1c(=O)c2nc(CSCc3ccccc3)[nH]c2n(C)c1=O [Compound 95910, 8-Benzylsulfanylmethyl-1,3-dimethyl-3,7-dihydro-purine-2,6-dione] |  |  |  |  | did not significantly inhibit
5 | CCCSc1nc2c([nH]1)c(=O)n(C)c(=S)n2C [Compound 95869, 1,3-Dimethyl-8-propylsulfanyl-2-thioxo-1,2,3,7-tetrahydro-purin-6-one] |  | 0 | 90 | 1 | 
